Calls of active or inactive are those of the source. The calls are words filed in the database; no cut-off is given here.
How the values were obtained:
[1] = system: Human immunodeficiency virus 1; assay: Antiviral activity against HIV1 pseudovirus infected in Jurkat cells coexpressing GFP assessed as viral growth inhibition incubated for 2 to 8 hrs prior to infection measured after 48 hrs by flow cytofluorimetric analysis; assay type: functional, organism-based
[2] = system: Jurkat; assay: Cytotoxicity against human Jurkat cells up to 2000 uM after 48 hrs by trypan blue staining; assay type: cell-based
[3] = system: Human immunodeficiency virus 1; assay: Antiviral activity against HIV1 pseudovirus infected in Jurkat cells coexpressing GFP assessed as viral growth inhibition up to 100 uM incubated for 2 to 8 hrs prior to infection measured after 48 hrs by flow cytofluorimetric analysis; assay type: functional, organism-based
[4] = Cytotoxicity against african green monkey Vero E6 cells after 72 hrs by trypan blue staining; assay type: cell-based; details: chlorocebus sabaeus
[5] = Selectivity ratio of CC50 for african green monkey Vero cells to EC50 for HSV1 L2; assay type: ADME, cell-based; details: read-out: Ratio CC50/EC50
[6] = Half life of the compound in KCl/KOH buffer at pH 12 assessed as acyclovir and acyclovir monophosphate formation by TLC analysis; assay type: physicochemical
[7] = system: Human alphaherpesvirus 1; assay: Resistance ratio of EC50 for acyclovir-resistant HSV1 L2 to EC50 for HSV1 L2; assay type: functional
[8] = Half life of the compound in phosphate buffer at pH 7.4 assessed as acyclovir formation by TLC analysis; assay type: physicochemical
[9] = system: Human alphaherpesvirus 1; assay: Antiviral activity against HSV1 L2 infected in Vero E6 cells assessed as inhibition of virus-induced cytopathic effect after 48 hrs; assay type: functional, organism-based; details: Human alphaherpesvirus 1, L2, Vero
[10] = system: Human immunodeficiency virus 1; assay: Antiviral activity against HIV1 pseudovirus infected in Jurkat cells coexpressing GFP assessed as viral growth inhibition at 20 uM incubated for 2 to 8 hrs prior to infection measured after 48 hrs by flow cytofluorimetric analysis; assay type: functional; details: Human immunodeficiency virus 1, Jurkat; read-out: GI
[11] = system: Human alphaherpesvirus 1; assay: Antiviral activity against acyclovir-resistant HSV1 L2 infected in Vero E6 cells assessed as inhibition of virus-induced cytopathic effect after 48 hrs; assay type: functional, organism-based; details: Human alphaherpesvirus 1, L2, Vero
[12] = Selectivity ratio of CC50 for african green monkey Vero cells to EC50 for acyclovir-resistant HSV1 L2; assay type: ADME, cell-based; details: read-out: Ratio CC50/EC50
[13] = Half life of the compound in KCl/HCl buffer at pH 2 assessed as acyclovir monophosphate formation by TLC analysis; assay type: physicochemical
[14] = Half life of the compound in KCl/KOH buffer at pH 12 assessed as acyclovir formation by TLC analysis; assay type: physicochemical
[15] = Chemical stability of the compound in KCl/HCl buffer at pH 2 assessed as monoamidate formation by TLC analysis; assay type: physicochemical
[16] = system: Human immunodeficiency virus 1; assay: Antiviral activity against HIV1 pseudovirus by cell-based assay; assay type: functional, organism-based

| Compound | growth inhibition (GI) [1] | Activity [2] | growth inhibition (GI) [3] | CC50 at 72 h [4] [µM] | selectivity ratio [5] | t1/2 [6] [h] | Ratio EC50 [7] | t1/2 [8] [h] | EC50 [9] [µM] | inhibition of growth at 20 µM [10] [%] | EC50 [11] [µM] | selectivity ratio [12] | t1/2 [13] [h] | t1/2 [14] [h] | Stability [15] | EC50 ([1]; Human immunodeficiency virus 1, Jurkat) [µM] | EC50 [16] [µM] |
| --- | --- | --- | --- | --- | --- | --- | --- | --- | --- | --- | --- | --- | --- | --- | --- | --- | --- |
| N.Nc1nc2c(ncn2COCCOP(=O)(O)N2CCOCC2)c(=O)[nH]1 | Dose-dependent effect | Non-toxic | Active | > 2000 | > 206 | > 120 | 2.5 | > 120 | 9.7 | 50 | 25 | > 80 | < 0.083 | – | – | – | – |
| N.Nc1nc2c(ncn2COCCOP(=O)(O)N2CCCC2)c(=O)[nH]1 | Dose-dependent effect | Non-toxic | Active | – | – | 96 | – | > 120 | – | – | – | – | < 0.083 | – | – | – | – |
| Nc1nc2c(ncn2COCCOP(N)(N)=O)c(=O)[nH]1 | – | Non-toxic | – | – | – | – | – | 4 | – | – | – | – | 0.083 | < 1 | Stable | – | – |
| CN(C)CCNP(=O)(O)OCCOCn1cnc2c(=O)[nH]c(N)nc21.N | – | Non-toxic | – | – | – | 48 | – | > 120 | – | – | – | – | < 0.083 | – | – | – | – |
| N.Nc1nc2c(ncn2COCCOP(=O)(O)NCCN2CCOCC2)c(=O)[nH]1 | Dose-dependent effect | Non-toxic | Active | – | – | 48 | – | > 120 | – | – | – | – | < 0.083 | – | – | – | – |
| CN(C)CCCNP(=O)(O)OCCOCn1cnc2c(=O)[nH]c(N)nc21.N | – | Non-toxic | – | – | – | 48 | – | > 120 | – | – | – | – | < 0.083 | – | – | – | – |
| CCCCCCNP(=O)(O)OCCOCn1cnc2c(=O)[nH]c(N)nc21.N | Dose-dependent effect | Non-toxic | Active | – | – | 48 | – | > 120 | – | – | – | – | < 0.083 | – | – | – | – |
| CCCN(CCC)P(=O)(O)OCCOCn1cnc2c(=O)[nH]c(N)nc21.N | Dose-dependent effect | Non-toxic | Active | > 2000 | > 133 | 96 | 2.5 | > 120 | 15 | – | 37 | > 54 | < 0.083 | – | – | – | – |
| Nc1nc2c(ncn2COCCOP(=O)(N2CCCC2)N2CCCC2)c(=O)[nH]1 | – | Non-toxic | – | – | – | – | – | 18 | – | – | – | – | 0.167 | 3 | Stable | – | – |
| Nc1nc2c(ncn2COCCO)c(=O)[nH]1 [ACYCLOVIR] | Dose-dependent effect | – | Active | > 2000 | > 1180 | – | – | – | 1.7 | – | 530 | > 3.8 | – | – | – | – | – |
| Nc1nc(=O)c2ncn(COCCOP(=O)(O)O)c2[nH]1 | – | Non-toxic | – | > 2000 | > 100 | – | – | – | 20 | – | 41 | > 49 | – | – | – | – | – |
| Cc1cn([C@H]2C[C@H](N=[N+]=[N-])[C@@H](CO)O2)c(=O)[nH]c1=O [ZIDOVUDINE] | – | – | – | – | – | – | – | – | – | – | – | – | – | – | – | 0.09 | 0.003 |
| CCCCCCNP(=O)(NCCCCCC)OCCOCn1cnc2c(=O)[nH]c(N)nc21 | – | Non-toxic | – | – | – | – | – | 5 | – | – | – | – | 0.083 | 1 | Stable | – | – |
| Nc1nc2c(ncn2COCCOP(=O)(N2CCOCC2)N2CCOCC2)c(=O)[nH]1 | – | Non-toxic | – | > 2000 | – | – | – | > 120 | > 500 | – | > 500 | – | 0.5 | 18 | Stable | – | – |
